Consider 40 molecules from publication PMC11668362, “On the function of TRAP substrate-binding proteins: the isethionate-specific binding protein IseP” (Biochemical Journal, 2024).

Assay [1] has as its target T1, OaIseP (isethionate-specific TRAP substrate-binding protein IseP) (Oleidesulfovibrio alaskensis, UniProt Q312S0). Details: gene dctP; without the native signal peptide; N-terminal His-tag removed with HRV 3C protease; DSF thermal shift with SYPRO Orange, PM4A Biolog compound screen, change of derivative melting temperature. Particulars: PM4A Biolog screen, compound concentration not disclosed; binder.
Target sequence in this assay (Q312S0 24-336): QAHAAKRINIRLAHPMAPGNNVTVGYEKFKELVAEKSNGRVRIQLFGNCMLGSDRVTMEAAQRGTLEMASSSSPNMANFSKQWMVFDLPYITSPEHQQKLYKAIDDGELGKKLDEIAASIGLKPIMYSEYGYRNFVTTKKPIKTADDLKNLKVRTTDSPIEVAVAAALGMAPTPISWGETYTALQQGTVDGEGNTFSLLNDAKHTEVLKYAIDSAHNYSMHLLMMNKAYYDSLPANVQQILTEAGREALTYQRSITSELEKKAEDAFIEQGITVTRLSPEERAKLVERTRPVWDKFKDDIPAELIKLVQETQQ

The target of assay [2] is T1, OaIseP (isethionate-specific TRAP substrate-binding protein IseP). As to the kind of experiment: X-ray crystal structure ([…] Å), open conformation; no significant DSF shift at […]. Also on record: gene dctP.
Target sequence in this assay (Q312S0 24-336 limits assumed): as the sequence (Q312S0 24-336) above
The target is the same in assay [3]. The description is as above. Also on record: gene dctP. The source holds these as a separate data set.
Target sequence in this assay (Q312S0 24-336 limits assumed): as the sequence (Q312S0 24-336) above
For assay [4] the target is unchanged. Kind of assay: biochemical. Details: gene dctP.
Target sequence in this assay (Q312S0 24-336 limits assumed): as the sequence (Q312S0 24-336) above

Turning to `O=P(O)(O)O[C@H]1[C@H](OP(=O)(O)O)[C@@H](OP(=O)(O)O)[C@H](OP(=O)(O)O)[C@@H](OP(=O)(O)O)[C@H]1OP(=O)(O)O` [inositol hexaphosphate], the “ΔTmD (°C)” value in assay [1] came to 0.46 ± 0.33 °C. For `N[C@@H](Cc1ccc(OP(=O)(O)O)cc1)C(=O)O` [O-phospho-L-tyrosine], the “ΔTmD (°C)” value in assay [1] is -0.73 ± 0.33 °C.

`O=P(O)(O)OC1O[C@H](CO)[C@@H](O)[C@H](O)[C@@H]1O` (stereo partly drawn) [D-mannose-1-phosphate]: the “ΔTmD (°C)” value in assay [1] was determined as 0.69 ± 0.31 °C. As to `NCCS(=O)O` [hypotaurine], the “ΔTmD (°C)” value in assay [1] was -0.68 ± 0.46 °C. As for `CSC[C@H](N)C(=O)O` [S-methyl-L-cysteine], in assay [1], the “ΔTmD (°C)” value is -0.41 ± 0.48 °C. In the case of `C=C(OP(=O)(O)O)C(=O)O` [phosphoenolpyruvate], in assay [1], the “ΔTmD (°C)” value is -0.63 ± 0.24 °C. Consider `N[C@@H](CS(=O)(=O)O)C(=O)O` [L-cysteic acid], for which the “ΔTmD (°C)” value in assay [1] turned out to be 0.11 ± 0.28 °C. On to `CS(=O)(=O)CC[C@H](N)C(=O)O` [L-methionine sulfone], for which the “ΔTmD (°C)” value in assay [1] is 0.44 ± 0.13 °C. Turning to `O=S1(=O)CCCC1` [tetramethylene sulfone], in assay [1], the “ΔTmD (°C)” value turned out to be 0.23 ± 0.11 °C.

For the molecule `NCCS` [cysteamine], the “ΔTmD (°C)” value in assay [1] came to 0.35 ± 0.00 °C. For the molecule `CC(=O)N[C@@H](CS)C(=O)O` [N-acetyl-L-cysteine], in assay [1], the “ΔTmD (°C)” value was -0.64 ± 0.24 °C. Same read-out and setting: under `NC(N)=S` [thiourea] stands -0.73 ± 0.31 °C; under `CCCCS(=O)(=O)O` [butane sulfonate], 0.41 ± 0.46 °C; under `N[C@@H](CS)C(=O)O` [L-cysteine], -0.68 ± 0.11 °C. Regarding `CSCC[C@H](NC(=O)CN)C(=O)O` [Gly-Met], the “ΔTmD (°C)” value in assay [1] is -0.01 ± 0.18 °C.

Turning to `C[S+]([O-])CC[C@H](N)C(=O)O` (stereo partly drawn) [L-methionine sulfoxide], in assay [1], the “ΔTmD (°C)” value came to 0.29 ± 0.11 °C.

`C[C@@H](OP(=O)(O)O)[C@H](N)C(=O)O` [O-phospho-L-threonine]: the “ΔTmD (°C)” value in assay [1] was -0.62 ± 0.28 °C. As for `CSCC[C@H](N)C(=O)O` [L-methionine], the “ΔTmD (°C)” value in assay [1] was -0.92 ± 0.37 °C. On to `NC(=O)OP(=O)(O)O` [carbamoyl phosphate], for which, in assay [1], the “ΔTmD (°C)” value was -0.49 ± 0.28 °C.

Take `O=S(=O)(O)CCN1CCOCC1` [MES, 2-(N-morpholino)ethanesulfonic acid]: the “X-ray crystal structure (1.65 Å), open conformation; no significant DSF shift at” value in assay [2] is “In both HEPES- and MES-bound structures, the sulfonate groups form a salt bridge to Arg177”. On to `N[C@H](Cc1ccc(OP(=O)(O)O)cc1)C(=O)O` [O-phospho-D-tyrosine], for which the “ΔTmD (°C)” value in assay [1] was determined as 0.87 ± 0.11 °C. Consider `O=S(=O)(O)CCN1CCN(CCO)CC1` [HEPES, 4-(2-hydroxyethyl)-1-piperazineethanesulfonic acid], for which the “X-ray crystal structure (1.89 Å), open conformation; no significant DSF shift at” value in assay [3] is “we were able to confidently model HEPES and MES buffer constituents from the crystallisation conditions into the densities”. As to `N[C@@H](CCSC[C@H](N)C(=O)O)C(=O)O` [cystathionine], the “ΔTmD (°C)” value in assay [1] amounted to 0.61 ± 0.21 °C. As to `NC(=O)CCCCC1CCSS1` (racemic) [DL-lipoamide], the “ΔTmD (°C)” value in assay [1] turned out to be 0.60 ± 0.38 °C. Turning to `N[C@@H](CCC(=O)N[C@@H](CS)C(=O)NCC(=O)O)C(=O)O` [glutathione], the “ΔTmD (°C)” value in assay [1] is -0.67 ± 0.37 °C.

For `CS(=O)(=O)O` [methane sulfonic acid], the “ΔTmD (°C)” value in assay [1] came out at 0.23 ± 0.28 °C. As for `N[C@H](COP(=O)(O)O)C(=O)O` [O-phospho-D-serine], in assay [1], the “ΔTmD (°C)” value came out at 0.05 ± 0.42 °C. Consider `N[C@H](CS)C(=O)O` [D-cysteine], for which the “ΔTmD (°C)” value in assay [1] was found to be 1.14 ± 0.17 °C.

As for `O=P(O)(O)OC(CO)CO` [b-glycerol phosphate], the “ΔTmD (°C)” value in assay [1] was -0.30 ± 0.29 °C. Turning to `N[C@@H](CS)C(=O)NCC(=O)O` [Cys-Gly], the “ΔTmD (°C)” value in assay [1] came to 1.14 ± 0.17 °C. Take `CSCC[C@@H](N)C(=O)O` [D-methionine]: in assay [1], the “ΔTmD (°C)” value is -0.62 ± 0.38 °C. As for `N[C@@H](CSC[C@H](N)C(=O)O)C(=O)O` [lanthionine], the “ΔTmD (°C)” value in assay [1] is -0.46 ± 0.10 °C. Regarding `O=C(O)COP(=O)(O)O` [phospho-glycolic acid], the “ΔTmD (°C)” value in assay [1] stood at 0.31 ± 0.21 °C. `O=P(O)(O)OC[C@H]1OC(O)[C@@H](O)[C@@H](O)[C@@H]1O` (stereo partly drawn) [D-mannose-6-phosphate]: the “ΔTmD (°C)” value in assay [1] is -0.09 ± 0.47 °C. Take `O=C[C@H](O)[C@@H](O)[C@H](O)[C@H](O)COP(=O)(O)O` [D-glucose-6-phosphate]: in assay [1], the “ΔTmD (°C)” value is -0.85 ± 0.37 °C.

Take `N[C@@H](CSCSC[C@H](N)C(=O)O)C(=O)O` [L-djenkolic acid]: in assay [1], the “ΔTmD (°C)” value is -0.32 ± 0.28 °C. For the molecule `O=S(=O)(O)CCO` [isethionate, 2-hydroxyethane sulfonate], in assay [4], the affinity, expressed as Kd, was 950 nM. Moreover, the “ΔTmD (°C)” value in assay [1] worked out at 6.52 ± 0.18 °C. In the case of `CN(CC(=O)O)C(=N)NP(=O)(O)O` [phospho-creatine], the “ΔTmD (°C)” value in assay [1] was 0.41 ± 0.40 °C.

Take `N[C@@H](CS(=O)O)C(=O)O` [L-cysteine sulfinate]: the “ΔTmD (°C)” value in assay [1] was 0.53 ± 0.00 °C. Consider `O=P(O)(O)O[C@H]1O[C@H](CO)[C@@H](O)[C@H](O)[C@H]1O` [D-glucose-1-phosphate], for which the “ΔTmD (°C)” value in assay [1] was 0.92 ± 0.26 °C.
